According to patent EP0090603A2, “Antibacterial compounds” (BEECHAM GROUP PLC, priority 1982, dated 1983):

Key:
[1] = tested on: Corynebacterium pyogenes CY1; assay: MIC against Veterinary Bacteria, in vitro agar dilution; conditions: 10^4 organisms, 18 hours at 37°C
Procedure: (§1) The activity of the compounds of the Examples against various veterinarily important bacteria, was assayed in vitro using two-fold serial dilutions in Diagnostic Sensitivity Test Agar inoculated with 10^4 organisms.

M. suipneumoniae MS 16 = assay: MIC against Mycoplasma, in vitro agar dilution; format: cell-based; conditions: Friis broth solidified with 0.9% agarose, 10^3 to 10^5 C.F.U., 6 days at 37°C
M. suipneumoniae LABER = assay: MIC against Mycoplasma, in vitro agar dilution; format: cell-based; conditions: Friis broth solidified with 0.9% agarose, 10^3 to 10^5 C.F.U., 6 days at 37°C
[2] = tested on: M. suipneumoniae J2206/183^b; assay: MIC against Mycoplasma, in vitro agar dilution; format: cell-based; conditions: Friis broth solidified with 0.9% agarose, 10^3 to 10^5 C.F.U., 6 days at 37°C
M. suipneumoniae TAM 6N = assay: MIC against Mycoplasma, in vitro agar dilution; format: cell-based; conditions: Friis broth solidified with 0.9% agarose, 10^3 to 10^5 C.F.U., 6 days at 37°C
Past. multocida PA2 = assay: MIC against Veterinary Bacteria, in vitro agar dilution; conditions: […], 10^4 organisms, 18 hours at 37°C
Procedure: as §1

M. suipneumoniae JF 435 = assay: MIC against Mycoplasma, in vitro agar dilution; format: cell-based; conditions: Friis broth solidified with 0.9% agarose, 10^3 to 10^5 C.F.U., 6 days at 37°C
[3] = tested on: Staph. aureus B4 (pen. resistant); assay: MIC against Veterinary Bacteria, in vitro agar dilution; conditions: […], 10^4 organisms, 18 hours at 37°C
Procedure: as §1

M. dispar NCTC 10125 = assay: MIC against Mycoplasma, in vitro agar dilution; format: cell-based; conditions: Friis broth solidified with 0.9% agarose, 10^3 to 10^5 C.F.U., 6 days at 37°C
E. coli NCTC 10418 = assay: MIC against Veterinary Bacteria, in vitro agar dilution; conditions: […], 10^4 organisms, 18 hours at 37°C
Procedure: as §1

M. suipneumoniae NB12 = assay: MIC against Mycoplasma, in vitro agar dilution; format: cell-based; conditions: Friis broth solidified with 0.9% agarose, 10^3 to 10^5 C.F.U., 6 days at 37°C
Past. multocida PA1 = assay: MIC against Veterinary Bacteria, in vitro agar dilution; conditions: […], 10^4 organisms, 18 hours at 37°C
Procedure: as §1

Past. haemolytica PA5 = assay: as above; conditions: […], 10^4 organisms, 18 hours at 37°C
Procedure: as §1

Bord. bronchiseptica B08 = assay: as above; conditions: […], 10^4 organisms, 18 hours at 37°C
Procedure: as §1

[4] = tested on: Staph. aureus 152 (pen. sens); assay: as above; conditions: […], 10^4 organisms, 18 hours at 37°C
Procedure: as §1

[5] = tested on: M. hyosynoviae ATCC 25591; assay: MIC against Mycoplasma, in vitro agar dilution; format: cell-based; conditions: Friis broth solidified with 0.9% agarose, 10^3 to 10^5 C.F.U., 6 days at 37°C
Strep. uberis SPU1 = assay: MIC against Veterinary Bacteria, in vitro agar dilution; conditions: […], 10^4 organisms, 18 hours at 37°C
Procedure: as §1

S. typhimurium S18 = assay: as above; conditions: […], 10^4 organisms, 18 hours at 37°C
Procedure: as §1

E. coli E1 = assay: as above; conditions: […], 10^4 organisms, 18 hours at 37°C
Procedure: as §1

[6] = tested on: M. suipneumoniae NCTC 10110; assay: MIC against Mycoplasma, in vitro agar dilution; format: cell-based; conditions: Friis broth solidified with 0.9% agarose, 10^3 to 10^5 C.F.U., 6 days at 37°C
M. suipneumoniae Str. 11 = assay: MIC against Mycoplasma, in vitro agar dilution; format: cell-based; conditions: Friis broth solidified with 0.9% agarose, 10^3 to 10^5 C.F.U., 6 days at 37°C
M. hyorhinis ATCC 23234 = assay: MIC against Mycoplasma, in vitro agar dilution; format: cell-based; conditions: Friis broth solidified with 0.9% agarose, 10^3 to 10^5 C.F.U., 6 days at 37°C
M. hyorhinis ATCC 25021 = assay: MIC against Mycoplasma, in vitro agar dilution; format: cell-based; conditions: Friis broth solidified with 0.9% agarose, 10^3 to 10^5 C.F.U., 6 days at 37°C
M. suipneumoniae UCD 1 = assay: MIC against Mycoplasma, in vitro agar dilution; format: cell-based; conditions: Friis broth solidified with 0.9% agarose, 10^3 to 10^5 C.F.U., 6 days at 37°C
[7] = tested on: Strep. suis (group D) SPS11; assay: MIC against Veterinary Bacteria, in vitro agar dilution; conditions: […], 10^4 organisms, 18 hours at 37°C
Procedure: as §1

M. bovis NCTC 10131 = assay: microbe, parasite or virus in culture; format: cell-based; conditions: Friis broth solidified with 0.9% agarose, 10^3 to 10^5 C.F.U., 6 days at 37°C
Bord. bronchiseptica B09 = assay: MIC against Veterinary Bacteria, in vitro agar dilution; conditions: […], 10^4 organisms, 18 hours at 37°C
Procedure: as §1

S. dublin S7 = assay: as above; conditions: […], 10^4 organisms, 18 hours at 37°C
Procedure: as §1

Strep. dysgalactiae SPD1 = assay: as above; conditions: […], 10^4 organisms, 18 hours at 37°C
Procedure: as §1

[8] = tested on: M. suipneumoniae ATCC 25095; assay: MIC against Mycoplasma, in vitro agar dilution; format: cell-based; conditions: Friis broth solidified with 0.9% agarose, 10^3 to 10^5 C.F.U., 6 days at 37°C
[9] = tested on: M. bovigenitalium ATCC 14173; assay: MIC against Mycoplasma, in vitro agar dilution; format: cell-based; conditions: Friis broth solidified with 0.9% agarose, 10^3 to 10^5 C.F.U., 6 days at 37°C
Staph. aureus Oxford = assay: MIC against Veterinary Bacteria, in vitro agar dilution; conditions: […], 10^4 organisms, 18 hours at 37°C
Procedure: as §1

M. suipneumoniae HK(2) = assay: MIC against Mycoplasma, in vitro agar dilution; format: cell-based; conditions: Friis broth solidified with 0.9% agarose, 10^3 to 10^5 C.F.U., 6 days at 37°C
M. pneumoniae ATCC 15492 = assay: MIC against Mycoplasma, in vitro agar dilution; format: cell-based; conditions: Friis broth solidified with 0.9% agarose, 10^3 to 10^5 C.F.U., 6 days at 37°C
[10] = tested on: Erysipelothrix rhusiopathiae NCTC 8163; assay: MIC against Veterinary Bacteria, in vitro agar dilution; conditions: […], 10^4 organisms, 18 hours at 37°C
Procedure: as §1

[11] = tested on: M. suipneumoniae PW/C/210; assay: MIC against Mycoplasma, in vitro agar dilution; format: cell-based; conditions: Friis broth solidified with 0.9% agarose, 10^3 to 10^5 C.F.U., 6 days at 37°C
M. gallisepticum S6 = assay: MIC against Mycoplasma, in vitro agar dilution; format: cell-based; conditions: Friis broth solidified with 0.9% agarose, 10^3 to 10^5 C.F.U., 6 days at 37°C

Methyl 9-[4-(5S-(2S,3S-epoxy-5S-hydroxy-4S-methylhexyl-3R,4R-dihydroxytetrahydropyran-2S-yl)-2,3-dimethylbut-2(E)-enoyloxy]nonanoate [Example 6]
MIC's against Corynebacterium pyogenes CY1 [1]: >80 µg/mL
MIC's against M. suipneumoniae MS 16 (M. suipneumoniae MS 16): 2.5 µg/mL
MIC's against M. suipneumoniae LABER (M. suipneumoniae LABER): 2.5 µg/mL
MIC's against M. suipneumoniae J2206/183^b [2]: 10.0 µg/mL
MIC's against M. suipneumoniae TAM 6N (M. suipneumoniae TAM 6N): 10.0 µg/mL
MIC's against Past. multocida PA2 (Past. multocida PA2): 5.0 µg/mL
MIC's against M. suipneumoniae JF 435 (M. suipneumoniae JF 435): 5.0 µg/mL
MIC's against Staph. aureus B4 (pen. resistant) [3]: 1.25 µg/mL
MIC's against M. dispar NCTC 10125 (M. dispar NCTC 10125): 2.5 µg/mL
MIC's against E. coli NCTC 10418 (E. coli NCTC 10418): >80 µg/mL
MIC's against M. suipneumoniae NB12 (M. suipneumoniae NB12): 2.5 µg/mL
MIC's against Past. multocida PA1 (Past. multocida PA1): 5.0 µg/mL
MIC's against Past. haemolytica PA5 (Past. haemolytica PA5): 80 µg/mL
MIC's against Bord. bronchiseptica B08 (Bord. bronchiseptica B08): 40 µg/mL
MIC's against Staph. aureus 152 (pen. sens) [4]: 2.5 µg/mL
MIC's against M. hyosynoviae ATCC 25591 [5]: 1.0 µg/mL
MIC's against Strep. uberis SPU1 (Strep. uberis SPU1): 0.312 µg/mL
MIC's against S. typhimurium S18 (S. typhimurium S18): >80 µg/mL
MIC's against E. coli E1 (E. coli E1): >80 µg/mL
MIC's against M. suipneumoniae NCTC 10110 [6]: 10.0 µg/mL
MIC's against M. suipneumoniae Str. 11 (M. suipneumoniae Str. 11): 2.5 µg/mL
MIC's against M. hyorhinis ATCC 23234 (M. hyorhinis ATCC 23234): 1.0 µg/mL
MIC's against M. hyorhinis ATCC 25021 (M. hyorhinis ATCC 25021): 1.0 µg/mL
MIC's against M. suipneumoniae UCD 1 (M. suipneumoniae UCD 1): 10.0 µg/mL
MIC's against Strep. suis (group D) SPS11 [7]: 10 µg/mL
MIC's against M. bovis NCTC 10131 (M. bovis NCTC 10131): 0.1 µg/mL
MIC's against Bord. bronchiseptica B09 (Bord. bronchiseptica B09): 5.0 µg/mL
MIC's against S. dublin S7 (S. dublin S7): >80 µg/mL
MIC's against Strep. dysgalactiae SPD1 (Strep. dysgalactiae SPD1): 0.625 µg/mL
MIC's against M. suipneumoniae ATCC 25095 [8]: 2.5 µg/mL
MIC's against M. bovigenitalium ATCC 14173 [9]: 0.25 µg/mL
MIC's against Staph. aureus Oxford (Staph. aureus Oxford): 0.625 µg/mL
MIC's against M. suipneumoniae HK(2) (M. suipneumoniae HK(2)): 10.0 µg/mL
MIC's against M. pneumoniae ATCC 15492 (M. pneumoniae ATCC 15492): 10.0 µg/mL
MIC's against Erysipelothrix rhusiopathiae NCTC 8163 [10]: >80 µg/mL
MIC's against M. suipneumoniae PW/C/210 [11]: 2.5 µg/mL
MIC's against M. gallisepticum S6 (M. gallisepticum S6): >10.0 µg/mL
